Our source for the Kd values is US20050197371A1, “Urea derivatives as PDGFR modulators” (Ambit Biosciences Corporation, priority 2003, published 2005).

The structures appear in SMILES notation.

This experiment has as its target T1, PDGFRB(DKIN) (PDGFR-β) (Homo sapiens, UniProt P09619).
T1 construct: PDGFRB(DKIN)
As to the kind of experiment: Phage-display competitive binding assay, PDGFRB(DKIN). The settings on record: T7 phage displaying human PDGFR-β, DKIN construct; read-out: Binding Assay: PDGFRB(DKIN). As to the method: The term “ND” represents non-determined values.
Briefly, T7 phage displaying human PDGFR-β were incubated with an affinity matrix coated with known PDGFR-β inhibitor in the presence of various concentrations of the soluble competitor molecules.
Take `CC(C)(C)c1cc(NC(=O)Nc2ccc(C(=O)/C=C/c3ccncc3)cc2)no1`: the Kd was in the range of 100 to 1000 nM. The same measure for `O=C(c1cc2ccccc2[nH]1)c1cc2cc(O)ccc2[nH]1`: under 100 nM. As for `CC(C)(C)c1cnc(CSc2cnc(NC(=O)Nc3ccon3)s2)o1`, the Kd lay within 1000 to 10000 nM. The same measure for `CC(C)(C)c1cc(NC(=O)Nc2ccc(CCc3ccc(N)cc3)cc2)no1` [Compound A3]: under 100 nM; for `CC(C)(C)c1cc(NC(=O)Nc2ccc(Cl)cc2Cl)no1` [Compound A7]: 1000 to 10000 nM; for `CC(C)c1ccc(NC(=O)Nc2cc(C(C)(C)C)no2)cc1` [Compound A11]: 100 to 1000 nM. In the case of `CC(C)(C)c1cc(NC(=O)Nc2ccc(OC(F)F)cc2)no1` [Compound A12], the Kd lay in the range of 100 to 1000 nM. `CC(C)(C)c1cc(NC(=O)Nc2ccc(OC(F)(F)F)cc2)on1` [Compound A13]: the Kd fell in the range of 100 to 1000 nM. In the case of `CC(C)(C)c1cc(NC(=O)Nc2ccc(CCc3ccccc3)cc2)no1` [Compound A15] it was under 100 nM; in that of `CC(C)(C)c1ccc(NC(=O)Nc2cc(C(C)(C)C)no2)cc1` [Compound A16], 100 to 1000 nM. In the case of `CC(C)(C)c1cc(NC(=O)Nc2ccc3cc4ccccc4cc3c2)no1` [Compound A18] it was 1000 to 10000 nM; in that of `CC(=O)c1ccc(NC(=O)Nc2cc(C(C)(C)C)on2)cc1` [Compound A20], 100 to 1000 nM; in that of `CC(C)(C)c1cc(NC(=O)Nc2ccc([N+](=O)[O-])cc2)no1` [Compound A21], 100 to 1000 nM. With `CC(C)(C)c1cc(NC(=O)Nc2ccc(Oc3ccccc3)cc2)no1` [Compound A24], the Kd fell in the range of 100 to 1000 nM. For `CC(C)c1ccc(NC(=O)Nc2cc(C(C)(C)C)on2)cc1` [Compound A25], the Kd lay within 100 to 1000 nM. The same measure for `CC(C)(C)c1cc(NC(=O)Nc2ccc(Br)cc2C(F)(F)F)on1` [Compound A26]: 1000 to 10000 nM; for `CC(C)(C)c1cc(NC(=O)Nc2ccc(Cl)cc2)no1` [Compound A27]: 100 to 1000 nM; for `COc1ccc(NC(=O)Nc2cc(C(C)(C)C)on2)cc1` [Compound A29]: 100 to 1000 nM. Regarding `COc1ccc(NC(=O)Nc2cc(C(C)(C)C)no2)cc1` [Compound A30], the Kd was under 100 nM. The same measure for `CC(C)(C)c1cc(NC(=O)Nc2ccc(Cl)cc2)on1` [Compound A32]: under 100 nM; for `Cc1ccc(NC(=O)Nc2cc(C(C)(C)C)on2)cc1` [Compound A33]: under 100 nM; for `CC(C)(C)c1cc(NC(=O)Nc2ccc(OCCN3CCOCC3)c3ccccc23)no1` [Compound A36]: 1000 to 10000 nM. Turning to `CSc1ccc(NC(=O)Nc2cc(C(C)(C)C)on2)cc1` [Compound A37], the Kd is 100 to 1000 nM. `CSc1ccc(NC(=O)Nc2cc(C(C)(C)C)no2)cc1` [Compound A39]: the Kd lay in the range of 100 to 1000 nM.

As to `C[S+]([O-])c1ccc(NC(=O)Nc2cc(C(C)(C)C)on2)cc1` (centres unmarked) [Compound A46], the Kd was 100 to 1000 nM. In the case of `COc1ccc(NC(=O)Nc2cc(C(C)(C)C)on2)cc1OC` [Compound A55] it was 1000 to 10000 nM; in that of `CC(C)(C)c1cc(NC(=O)Nc2ccc3c(c2)OCO3)no1` [Compound A56], 1000 to 10000 nM; in that of `CC(C)(C)c1cc(NC(=O)Nc2ccc(N3C(=O)c4ccccc4C3=O)cc2)no1` [Compound A57], under 100 nM. On to `COc1cccc(CNC(=O)Nc2cc(C(C)(C)C)on2)c1` [Compound B3], for which the Kd lay within 100 to 1000 nM. The same measure for `CC(C)(C)c1cc(NC(=O)Nc2ccc(C(=O)O)cc2)no1` [Compound C2]: over 10000 nM; for `Cc1ccc(-n2nc(C(C)(C)C)cc2NC(=O)Nc2ccc(C(C)C)cc2)cc1` [Compound D1, 1-(3-tert-butyl-1-p-tolyl-1H-pyrazol-5-yl)-3-(4-isopropylphenyl)urea]: over 10000 nM.

On to `O=C(Nc1ccc(Cl)cc1)Nc1cc(C2CC2)nn1-c1ccccc1` [Compound D10], for which the Kd was 1000 to 10000 nM.

For the molecule `CC(C)(C)c1cc(N2CCCN(c3ccc(OCc4ccccc4)cc3)C2=O)on1` [Compound E2], the Kd lay in the range of 100 to 1000 nM. Regarding `CC(C)(C)c1cc(N2CCCN(c3ccc(OCc4ccccc4)cc3)C2=O)no1` [Compound E3], the Kd is over 10000 nM. In the case of `CN1CN(c2ccc(OCc3ccccc3)cc2)C(=O)N(c2cc(C(C)(C)C)on2)C1` [Compound E4] it was 100 to 1000 nM; in that of `COc1ccc(N2CCCN(c3cc(C(C)(C)C)no3)C2=O)cc1` [Compound E5], 100 to 1000 nM. On to `CC(C)(C)c1cc(NC(=S)Nc2ccc(N3CCOCC3)cc2)no1` [Compound F1, 1-(5-tert-butylisoxazol-3-yl)-3-(4-morpholinophenyl)thiourea], for which the Kd is over 10000 nM. As to `CC(C)(C)c1cc(NC(=O)Nc2ccc(OCc3ccccc3C(F)(F)F)cc2)no1` [Compound G4], the Kd was in the range of 100 to 1000 nM. Turning to `CC(C)(C)c1cc(NC(=O)Nc2ccc(OCc3ccc(OC(F)(F)F)cc3)cc2)no1` [Compound G5], the Kd is under 100 nM. In the case of `CC(C)(C)c1cc(NC(=O)Nc2ccc(OCc3ccc(C(F)(F)F)cc3)cc2)no1` [Compound G6] it was under 100 nM.

Consider `COC(=O)c1cccc(COc2ccc(NC(=O)Nc3cc(C(C)(C)C)on3)cc2)c1` [Compound G7], for which the Kd was under 100 nM.

As to `CC(C)(C)c1cc(NC(=O)Nc2ccc(OCc3ccccc3-c3ccccc3)cc2)no1` [Compound G8], the Kd fell in the range of 100 to 1000 nM.

As for `CC(C)(C)c1cc(NC(=O)Nc2ccc(OCc3ccc(C(=O)c4ccccc4)cc3)cc2)no1` [Compound G9], the Kd was 100 to 1000 nM. The same measure for `CC(C)(C)c1cc(NC(=O)Nc2ccc(OCc3ccccc3Cl)cc2)no1` [Compound G10]: under 100 nM; for `CC(C)(C)c1cc(NC(=O)Nc2ccc(OCc3cccc(Cl)c3)cc2)no1` [Compound G11]: under 100 nM.

On to `CC(C)(C)c1cc(NC(=O)Nc2ccc(OCc3ccccc3F)cc2)no1` [Compound G12, 1-(4-(2-fluorobenzyloxy)phenyl)-3-(5-tert-butylisoxazol-3-yl)urea], for which the Kd was under 100 nM. For the molecule `COc1cccc(COc2ccc(NC(=O)Nc3cc(C(C)(C)C)on3)cc2)c1` [Compound G13], the Kd was under 100 nM. The same measure for `CC(C)(C)c1cc(NC(=O)Nc2ccc(OCc3cccc(F)c3)cc2)no1` [Compound G14]: under 100 nM. In the case of `Cc1ccc(COc2ccc(NC(=O)Nc3cc(C(C)(C)C)on3)cc2)cc1` [Compound G15] it was under 100 nM; in that of `CC(Oc1ccc(NC(=O)Nc2cc(C(C)(C)C)on2)cc1)c1ccccc1` (centres unmarked) [Compound G17], 100 to 1000 nM; in that of `CC(C)(C)c1cc(NC(=O)Nc2ccc(OCc3ccc(F)cc3Cl)cc2)no1` [Compound G18], under 100 nM. Turning to `CC(C)(C)c1cc(NC(=O)Nc2ccc(OCc3c(Cl)cccc3Cl)cc2)no1` [Compound G19], the Kd lay within 100 to 1000 nM.

Turning to `CCOc1ccc(NC(=O)Nc2cc(C(C)(C)C)on2)cc1` [Compound G20], the Kd is under 100 nM. In the case of `CC(C)(C)c1cc(NC(=O)Nc2ccc(OCc3c(F)cccc3F)cc2)no1` [Compound G21] it was under 100 nM. Turning to `CC(C)(C)c1cc(NC(=O)Nc2ccc(OCCc3ccncc3)cc2)no1` [Compound G22], the Kd was under 100 nM.

Consider `CC(C)(C)c1cc(NC(=O)Nc2ccc(OC/C=C/c3ccccc3Cl)cc2)no1` [Compound G26], for which the Kd is under 100 nM.

On to `CC(C)(C)c1cc(NC(=O)Nc2ccc(OCC(O)CO)cc2)no1` (centres unmarked) [Compound G28], for which the Kd lay in the range of 100 to 1000 nM. Turning to `CC(C)(C)c1cc(NC(=O)Nc2ccc(OCc3ccccc3)cc2)on1` [Compound G30], the Kd is under 100 nM. Consider `CC(C)(C)c1cc(NC(=O)Nc2ccc(OCc3ccccc3)cc2)no1` [Compound G31], for which the Kd is under 100 nM. The same measure for `C=CCOc1ccc(NC(=O)Nc2cc(C(C)(C)C)no2)cc1` [Compound G32]: under 100 nM; for `CC(C)Oc1ccc(NC(=O)Nc2cc(C(C)(C)C)no2)cc1` [Compound G33]: under 100 nM; for `CC(C)(C)c1cc(NC(=O)Nc2ccc(OCc3ccc(Cl)cc3)cc2)no1` [Compound G34]: under 100 nM. For the molecule `CC(C)(C)c1cc(NC(=O)Nc2ccc(OCc3ccc(F)cc3)cc2)no1` [Compound G35], the Kd is under 100 nM. In the case of `CC(C)(C)c1cc(NC(=O)Nc2ccc(OCC3CC3)cc2)no1` [Compound G37] it was under 100 nM; in that of `Cc1ccc(-n2nc(C(C)(C)C)cc2NC(=O)Nc2ccc(OCCN3CCOC(CO)C3)c3ccccc23)cc1` (centres unmarked) [Compound G38], 100 to 1000 nM. In the case of `CC(C)(C)c1cc(NC(=O)Nc2ccc(OCC3CCC3)cc2)no1` [Compound G39] it was under 100 nM; in that of `CC(C)(C)c1cc(NC(=O)Nc2ccc(OCCN3CCOCC3)cc2)no1` [Compound G40], 1000 to 10000 nM; in that of `CC1CN(CCOc2ccc(NC(=O)Nc3cc(C(C)(C)C)on3)cc2)CC(C)O1` (centres unmarked) [Compound G42], 100 to 1000 nM. As for `CC1CCCN(CCOc2ccc(NC(=O)Nc3cc(C(C)(C)C)on3)cc2)C1` (centres unmarked) [Compound G44], the Kd was over 10000 nM.

On to `CC1CN(CCOc2ccc(NC(=O)Nc3cc(C(C)(C)C)on3)cc2)CCN1` (centres unmarked) [Compound G46], for which the Kd fell in the range of 1000 to 10000 nM. `CC(C)(C)c1cc(NC(=O)Nc2ccc(OCCN3CCC(O)CC3)cc2)no1` [Compound G48]: the Kd is 1000 to 10000 nM. In the case of `CC(C)(C)c1cc(NC(=O)Nc2ccc(OCCN3CCSCC3)cc2)no1` [Compound G53] it was 100 to 1000 nM. For the molecule `CC(C)(C)c1cc(NC(=O)Nc2ccc(OCc3ccc4nonc4c3)cc2)no1` [Compound G55], the Kd lay in the range of 100 to 1000 nM. In the case of `CC(C)(C)c1cc(NC(=O)Nc2ccc(OCc3ccc(-c4ccccc4)cc3)cc2)no1` [Compound G56] it was under 100 nM. In the case of `Cn1nc(C(C)(C)C)cc1NC(=O)Nc1ccc(OCc2ccccc2)cc1` [Compound H2] it was 100 to 1000 nM. In the case of `Cc1cc(NC(=O)Nc2ccc(OCc3ccccc3)cc2)n(-c2ccccc2)n1` [Compound H4] it was 1000 to 10000 nM.

In the case of `Cn1nc(C2CC2)cc1NC(=O)Nc1ccc(OCc2ccccc2)cc1` [Compound H7], the Kd was over 10000 nM.
